# Measurements reported in patent publication US6403831B1, “Substituted benzylidene indenyl formamides, acetamides and propionamides” (Cell Pathways, Inc., priority 1996, dated 2002).
# Key:
# [1] = test system: human colon carcinoma cell line, SW-480; assay: Growth inhibition, Sulforhodamine B (SRB) protein binding assay; assay type: cell-based; conditions: SW-480 cell line, six days continuous exposure
# Method in brief: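 SW-480 cells at 1000 cells/well exposed continuously to compound for six days in RPMI with 5% FCS, 0.1% DMSO vehicle. Growth measured by sulforhodamine B staining and optical density relative to controls; IC50 read graphically from mean values, three wells per concentration.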
# [2] = test system: HT-29 human colon carcinoma cells; assay: Apoptosis by morphology (acridine orange/ethidium bromide, condensed chromatin); assay type: cell-based; conditions: HT-29 cells
# COX I = target: T1, COX I (Ovis aries, UniProt P05979); assay: Cyclooxygenase (COX) inhibition, purified COX; assay type: biochemical; conditions: 100 μM test compound; purified COX from ram seminal vesicles, arachidonic acid 100 μM
# T1 construct: The COX was purified form ram seminal vesicles; from tissue; host or cells: ram seminal vesicles
# T1 sequence (P05979 25-600): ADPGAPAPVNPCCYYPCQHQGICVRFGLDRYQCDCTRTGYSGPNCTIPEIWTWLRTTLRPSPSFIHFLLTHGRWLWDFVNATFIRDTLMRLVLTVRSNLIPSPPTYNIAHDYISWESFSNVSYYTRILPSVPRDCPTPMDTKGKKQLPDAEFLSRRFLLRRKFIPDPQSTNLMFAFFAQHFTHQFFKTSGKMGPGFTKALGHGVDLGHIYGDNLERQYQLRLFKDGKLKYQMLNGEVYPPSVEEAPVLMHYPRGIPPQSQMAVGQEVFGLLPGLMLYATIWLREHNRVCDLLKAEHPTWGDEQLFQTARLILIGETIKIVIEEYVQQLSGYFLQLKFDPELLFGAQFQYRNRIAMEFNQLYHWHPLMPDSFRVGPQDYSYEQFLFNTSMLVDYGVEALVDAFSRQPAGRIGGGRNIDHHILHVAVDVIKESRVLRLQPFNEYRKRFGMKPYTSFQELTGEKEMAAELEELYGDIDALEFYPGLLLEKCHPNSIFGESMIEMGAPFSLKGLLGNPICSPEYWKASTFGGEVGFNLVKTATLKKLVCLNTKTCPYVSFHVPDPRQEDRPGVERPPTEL
# Method in brief: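 Ram seminal vesicle COX, purified, was incubated 2.0 min at 37° C with 100 μM arachidonic acid with or without test compounds. Reactions stopped with TCA; activity read as absorbance at 530 nm.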
# [3] = test system: SW-480 colon adenocarcinoma cells; assay: Apoptosis by DNA fragmentation (Cell Death Detection ELISA plus); assay type: cell-based, human; conditions: SW-480 cells, 48 hrs
smiles,measurement,setting,value
"COc1cc(OC)c(OC)cc1/C=C1/C(C)=C(CC(=O)NCc2ccccc2)c2cc(F)ccc21 [Example 58, (Z)-5-fluoro-2-methyl-1-(2,4,5-trimethoxybenzylidene)-3-(N-benzyl)-indenylacetamide]",IC50,[1],980 nM
same,Morphology % Apoptotic Cells (1 μM),[2],52%
same,COX I % Inhibition (100 μM),COX I,<25%
same,EC50,[3]; by software or estimated from effective concentration range,700 nM
same,DNA Fragmentation FS (100 μM),"[3]; fold stimulation FS=ODmax/ODveh, 100 μM",2.5
